Results on 1 compound are retold here after publication PMC9331678 (Molecules, 2022).

The nature of series [1]: 6 h benchtop (early preanalytical) stability in whole blood and in plasma. To be noted: ambient temperature (25 °C), up to 6 h. The format is in vitro ADME, human. The procedure: Six independent plasma samples were processed. The reference solutions were 140 µL acetonitrile-water 4:1 (v/v) mixtures spiked as described above. The mixtures and the reference solutions were subsequently diluted with 90 µL water. Internal standard-corrected matrix factors were calculated as the peak area ratios of the analytes and the internal standards in prepared plasma versus those in a neat solution. In the stability studies, the recoveries of IBR and DIB were calculated as the ratio of the concentrations measured after incubation and those measured at the beginning of the study.
The preanalytical stability of IBR and DIB was evaluated by adding 20 µL methanol solutions containing 500 ng/mL IBR and DIB to two 1.0 mL aliquots of blood freshly drawn into phlebotomy tubes containing K3-EDTA. Three samples, 3 mL each, were taken from three healthy volunteers (manuscript authors G.B.K., I.V. and Z.K.). One of the fractions was centrifuged at 3000 rpm and 10 °C for 10 min immediately after spiking the analytes, and plasma was separated. Both spiked whole blood and the separated plasma were kept at ambient temperature for 6 h. […] Fifty microliters was drawn from the supernatant of the whole blood sample as well as from the plasma, and was processed as described in Section 2.2.

For series [2] the following is noted: cited from earlier work.
The subject of a further series is plasma albumin. Conditions: cited from earlier work.
For series [3] the following is noted: cited from earlier work. The source holds these as a separate data set.
The conditions of series [4]: plasma kept at ambient temperature for 24 h; ref 24 (Huynh et al.); cited from earlier work.

With `C=CC(=O)N1CCC[C@@H](n2nc(-c3ccc(Oc4ccccc4)cc3)c3c(N)ncnc32)C1` [Ibrutinib, 1-[(3R)-3-[4-Amino-3-(4-phenoxyphenyl)-1H-pyrazolo[3,4-d]pyrimidin-1-yl]-1-piperidinyl]-2-propen-1-one], the recovery at 9.8 ng/mL in series [1] (human, plasma (separated from spiked K3-EDTA whole blood), plasma, all analyses) is at least 85%. In series [1] (whole blood), the “cases with recoveries lower than 85% (of fifteen analyses)” value is “two”. For the same compound, in series [2], the oral bioavailability entry is recorded as “low”. In addition, the “affinity to plasma albumin” value in the series with plasma albumin is reported as above 95%. The solubility in water result in series [3] is “poor”. Also, in series [4], the recoveries is listed as 46.7–72.9%.
